Results: US9868766B2, “Peptides as oxytocin agonists” (Hoffmann-La Roche Inc., priority 2012, dated 2018)
Positions of bridges follow the written chain, without caps; N, C: chain ends. Non-standard residues stand in square brackets, D forms with d. Residues, ends and D or L forms follow the SMILES beside them. Phe(4-NH2) = Nc1ccc(C[C@H](N)C(=O)O)cc1; aThr = C[C@H](O)[C@H](N)C(=O)O; αMeL = CC(C)C[C@](C)(N)C(=O)O; Orn = NCCC[C@H](N)C(=O)O; Aze = O=C(O)[C@@H]1CCN1; Sar = CNCC(=O)O

Tests used:
Type in all cases: cell-based
[1] = biological target: T1, human Oxytocin (OTR) receptor (Homo sapiens, UniProt P30559); test: Calcium flux assay (FLIPR), agonist mode, CHO cells expressing human OTR; conditions: for EC50: CHO cells stably expressing human OTR, calcium flux, read-out: hOT EC50; for hOT efficacy (%) / Emax: maximum response normalized to endogenous full agonist = 100%; for Emax: CHO, read-out: hOT efficacy (%)
T1 construct: expressed in transfected cells
T1 sequence (P30559 1-389): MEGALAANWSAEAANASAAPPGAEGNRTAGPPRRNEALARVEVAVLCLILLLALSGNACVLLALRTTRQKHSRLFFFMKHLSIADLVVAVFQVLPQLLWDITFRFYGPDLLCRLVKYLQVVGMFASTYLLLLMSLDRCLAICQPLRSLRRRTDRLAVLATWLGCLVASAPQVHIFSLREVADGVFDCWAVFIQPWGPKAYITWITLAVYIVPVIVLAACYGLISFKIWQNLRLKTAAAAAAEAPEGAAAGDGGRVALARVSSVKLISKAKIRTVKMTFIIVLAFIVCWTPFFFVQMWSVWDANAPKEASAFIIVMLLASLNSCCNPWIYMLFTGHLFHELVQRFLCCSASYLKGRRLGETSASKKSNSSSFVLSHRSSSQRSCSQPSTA
Description: (§1) Chines Hamster Ovary (CHO) cells were transfected with expression plasmids encoding either the human V1a, the human Oxytocin (OTR) or the humanV2 receptor, the later in combination with the chimeric Gqs5 G protein to redirect the signal to Calcium flux. Stable cells were cloned by limiting dilution to yield monoclonal cell lines expressing either human V1a, human V2+Gqs5 or human OTR receptors and selected based on functional responses detected on a fluorometric imaging plate reader (FLIPR) detecting Calcium flux in the cell after receptor activation.
On the afternoon before the assay, cells were plated at a density of 50,000 cells/well into black 96 well plates with clear bottoms to allow cell inspection and fluorescence measurements from the bottom of each well. The density of cells was sufficient to yield a confluent monolayer the next day. Hanks balanced salt solution, without phenol red, containing 20 mM HEPES (pH 7.3) and 2.5 mM probenecid (assay buffer) was prepared fresh for each experiment. Compound dilutions were made using a Beckman Biomek 2000 laboratory automation workstation, in assay buffer containing 1% DMSO. The dye-loading buffer consisted of a final concentration of 2 μM Fluo-4-AM (dissolved in DMSO and pluronic acid) in assay buffer. […] Once dye-loaded, the cells were washed thoroughly on an Embla cell washer with the assay buffer to remove any unincorporated dye. Exactly 100 μl assay buffer was left in each well.
Each 96 well plate containing dye-loaded cells was placed into the FLIPR machine and the laser intensity set to a suitable level to detect low basal fluorescence. To test compounds as agonists, 25 μl diluted compound was added to the plate 10 seconds into the fluorescent measurements and fluorescent response was recorded for 5 minutes. The fluorescence data was normalized to the endogenous full agonist dose-response set at 100% for the maximum response and 0% for the minimum. […] The concentration of agonist that produced a half-maximal response is represented by the EC50 value, the logarithm of which yielded the pEC50 value.

[2] = biological target: T2, human V1a receptor (Homo sapiens, UniProt P37288); test: Calcium flux assay (FLIPR), agonist mode, CHO cells expressing human V1a; conditions: for EC50: CHO cells stably expressing human V1a, calcium flux, read-out: hV1a EC50; for hV1a efficacy (%): maximum response normalized to endogenous full agonist = 100%
T2 construct: expressed in transfected cells
T2 sequence (P37288 whole entry): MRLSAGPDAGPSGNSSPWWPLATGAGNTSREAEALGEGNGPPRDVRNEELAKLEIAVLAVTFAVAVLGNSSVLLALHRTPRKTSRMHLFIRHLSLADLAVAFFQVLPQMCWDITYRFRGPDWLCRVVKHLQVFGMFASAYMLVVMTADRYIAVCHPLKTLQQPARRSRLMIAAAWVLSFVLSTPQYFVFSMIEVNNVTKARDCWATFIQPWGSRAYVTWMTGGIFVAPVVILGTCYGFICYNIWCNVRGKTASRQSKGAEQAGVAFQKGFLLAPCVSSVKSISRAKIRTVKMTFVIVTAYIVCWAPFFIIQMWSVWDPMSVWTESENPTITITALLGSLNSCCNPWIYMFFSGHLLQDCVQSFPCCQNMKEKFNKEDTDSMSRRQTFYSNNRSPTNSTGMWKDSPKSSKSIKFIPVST
Description: as §1, with “activation. The stable cell lines were grown in F-12 K Nutrient Mixture (Kaighns Modification), containing 10% foetal bovine serum (FBS), 1% penicillin-streptomycin, 1% L-glutamate, 200 ug/ml Geneticin at 37° C. in a 10% CO2 incubator at 95% humidity.” for “activation.”
(§2) On the afternoon before the assay, cells were plated at a density of 50,000 cells/well into black 96 well plates with clear bottoms to allow cell inspection and fluorescence measurements from the bottom of each well. The density of cells was sufficient to yield a confluent monolayer the next day. Hanks balanced salt solution, without phenol red, containing 20 mM HEPES (pH 7.3) and 2.5 mM probenecid (assay buffer) was prepared fresh for each experiment. Compound dilutions were made using a Beckman Biomek 2000 laboratory automation workstation, in assay buffer containing 1% DMSO. The dye-loading buffer consisted of a final concentration of 2 μM Fluo-4-AM (dissolved in DMSO and pluronic acid) in assay buffer. The existing culture media was removed from the wells and 100 μl of the dye-loading buffer was added to each well and incubated for approximately 60 min at 37° C. in a 5% CO2 incubator at 95% humidity. Once dye-loaded, the cells were washed thoroughly on an Embla cell washer with the assay buffer to remove any unincorporated dye. Exactly 100 μl assay buffer was left in each well.
(§3) Each 96 well plate containing dye-loaded cells was placed into the FLIPR machine and the laser intensity set to a suitable level to detect low basal fluorescence. To test compounds as agonists, 25 μl diluted compound was added to the plate 10 seconds into the fluorescent measurements and fluorescent response was recorded for 5 minutes. The fluorescence data was normalized to the endogenous full agonist dose-response set at 100% for the maximum response and 0% for the minimum. Each agonist concentration-response curve was constructed using a four parameter logistic equation with Microsoft Excel XLFit as follows: Y=Minimum+((Maximum−Minimum)/(1+10^(Log EC50-X)nH)), where y is the % normalized fluorescence, minimum is the minimum y, maximum is the maximum y, log EC50 is the log10 concentration which produces 50% of the maximum induced fluorescence, x is the log10 of the concentration of the agonist compound and H is the slope of the curve (the Hill Coefficient). The maximum value gives the efficacy of the agonist test compound in percentage. The concentration of agonist that produced a half-maximal response is represented by the EC50 value, the logarithm of which yielded the pEC50 value.

[3] = biological target: T3, human V2 receptor (Homo sapiens, UniProt P30518); test: Calcium flux assay (FLIPR), agonist mode, CHO cells expressing human V2 + Gqs5; conditions: for EC50: CHO cells stably expressing human V2 + chimeric Gqs5, calcium flux, read-out: hV2 EC50; for Emax: CHO, maximum response normalized to endogenous full agonist = 100%, read-out: hV2 efficacy (%)
T3 construct: expressed in transfected cells
T3 sequence (P30518 whole entry): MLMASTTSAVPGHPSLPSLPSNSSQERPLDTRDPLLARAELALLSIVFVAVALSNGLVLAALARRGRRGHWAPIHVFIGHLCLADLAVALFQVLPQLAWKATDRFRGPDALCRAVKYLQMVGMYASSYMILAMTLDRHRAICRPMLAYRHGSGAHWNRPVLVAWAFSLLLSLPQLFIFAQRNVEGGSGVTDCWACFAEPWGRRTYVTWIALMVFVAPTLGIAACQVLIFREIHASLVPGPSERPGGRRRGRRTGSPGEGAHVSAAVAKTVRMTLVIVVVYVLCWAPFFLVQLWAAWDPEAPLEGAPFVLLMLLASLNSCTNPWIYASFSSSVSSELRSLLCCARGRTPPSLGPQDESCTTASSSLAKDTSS
Description: as §1, with “activation. The stable cell lines were grown in F-12 K Nutrient Mixture (Kaighns Modification), containing 10% foetal bovine serum (FBS), 1% penicillin-streptomycin, 1% L-glutamate, 200 ug/ml Geneticin at 37° C. in a 10% CO2 incubator at 95% humidity.” for “activation.”
as §2, §3

Row | EC50 [1] [µM] | hOT efficacy (%) [1] [%] | EC50 [2] [µM] | EC50 [3] [µM] | Emax [3] [%] | Emax [1] [%] | hV1a efficacy (%) [2] [%] | SMILES
1 | 0.01 | 111 | > 27 | 4.8 | 107 |  |  | CC[C@H](C)[C@@H]1NC(=O)[C@H](Cc2ccc(O)cc2)NC(=O)CNC(=O)CC[C@@H](C(=O)N(C)CC(=O)N[C@@H](Cc2ccc(N)cc2)C(=O)NCC(N)=O)NC(=O)[C@H](CC(N)=O)NC(=O)[C@H](CCC(N)=O)NC1=O [Example 1] (GYIQNE[Sar][Phe(4-NH2)]G-NH2; lactam N-6)
2 | 0.009 | 112 | > 27 | 7.91 | 74 |  |  | CC[C@H](C)[C@@H]1NC(=O)[C@H](Cc2ccc(N)cc2)NC(=O)CNC(=O)CC[C@@H](C(=O)N(C)CC(=O)N[C@@H](CC(C)C)C(=O)NCC(N)=O)NC(=O)[C@H](CC(N)=O)NC(=O)[C@H](CCC(N)=O)NC1=O [Example 2] (G[Phe(4-NH2)]IQNE[Sar]LG-NH2; lactam N-6)
3 | 0.0002 |  | > 27 | 5.11 | 97 | 111 |  | CC[C@H](C)[C@@H]1NC(=O)[C@H](Cc2ccc(O)cc2)NC(=O)CNC(=O)CC[C@@H](C(=O)N(C)CC(=O)N[C@@H](CC(C)C)C(=O)NCC(N)=O)NC(=O)[C@H](CC(N)=O)NC(=O)[C@H](CCC(N)=O)NC1=O [Example 13] (GYIQNE[Sar]LG-NH2; lactam N-6)
4 | 0.0015 |  | 0.127 |  |  | 122 | 33 | CC[C@H](C)[C@@H]1NC(=O)[C@H](Cc2ccc(O)cc2)NC(=O)CNC(=O)CC[C@@H](C(=O)N2CCC[C@H]2C(=O)N[C@H](C(=O)NCC(N)=O)C(C)C)NC(=O)[C@H](CC(N)=O)NC(=O)[C@H](CCC(N)=O)NC1=O [Example 19] (GYIQNEPVG-NH2; lactam N-6)
5 | 0.04 |  | > 12 |  |  |  |  | CC[C@H](C)[C@@H]1NC(=O)[C@H](Cc2ccc(O)cc2)NC(=O)CNC(=O)CC[C@@H](C(=O)N2CCC[C@H]2C(=O)N[C@@H](CC(C)C)C(=O)NCC(N)=O)NC(=O)[C@H](CC(N)=O)NC(=O)[C@H](CCCN)NC1=O [Example 20] (GYI[Orn]NEPLG-NH2; lactam N-6)
6 | 0.012 | 105 | 0.032 |  |  |  | 55 | CC[C@H](C)[C@@H]1NC(=O)[C@H](Cc2ccc(O)cc2)NC(=O)CNC(=O)CC[C@@H](C(=O)N2CCC[C@H]2C(=O)N[C@@H](CCCCN)C(=O)NCC(N)=O)NC(=O)[C@H](CC(N)=O)NC(=O)[C@H](CCC(N)=O)NC1=O [Example 21] (GYIQNEPKG-NH2; lactam N-6)
7 | 0.0022 |  | > 27 | 2.51 | 98 | 152 |  | CC[C@H](C)[C@@H]1NC(=O)[C@H](Cc2ccc(O)cc2)NC(=O)CNC(=O)CC[C@@H](C(=O)N2CCC[C@H]2C(=O)N[C@@H](CC(C)C)C(=O)NCC(N)=O)NC(=O)[C@H](CC(N)=O)NC(=O)[C@H](CCC(N)=O)NC1=O [Example 24] (GYIQNEPLG-NH2; lactam N-6)
8 | 0.003 | 125 | > 10 | 3.82 | 103 |  |  | CC[C@H](C)[C@@H]1NC(=O)[C@H](Cc2ccc(O)cc2)NC(=O)CNC(=O)CC[C@@H](C(=O)N(C)CC(=O)N[C@H](C(=O)NCC(N)=O)[C@H](C)O)NC(=O)[C@H](CC(N)=O)NC(=O)[C@H](CCC(N)=O)NC1=O [Example 25] (GYIQNE[Sar][aThr]G-NH2; lactam N-6)
9 | 0.002 | 124 | > 10 | 2.62 | 102 |  |  | CC[C@H](C)[C@@H]1NC(=O)[C@H](Cc2ccc(O)cc2)NC(=O)CNC(=O)CC[C@@H](C(=O)N(C)CC(=O)N[C@H](C(=O)NCC(N)=O)C(C)C)NC(=O)[C@H](CC(N)=O)NC(=O)[C@H](CCC(N)=O)NC1=O [Example 26] (GYIQNE[Sar]VG-NH2; lactam N-6)
10 | 0.005 | 128 | > 10 | 1.5 | 101 |  |  | CC[C@H](C)[C@@H]1NC(=O)[C@H](Cc2ccc(O)cc2)NC(=O)CNC(=O)CC[C@@H](C(=O)N(C)CC(=O)N[C@@H](Cc2ccccc2)C(=O)NCC(N)=O)NC(=O)[C@H](CC(N)=O)NC(=O)[C@H](CCC(N)=O)NC1=O [Example 27] (GYIQNE[Sar]FG-NH2; lactam N-6)
11 | 0.005 | 122 | > 10 | 4.17 | 87 |  |  | CC[C@H](C)[C@@H]1NC(=O)[C@H](Cc2ccc(O)cc2)NC(=O)CNC(=O)CC[C@@H](C(=O)N(C)CC(=O)N[C@@H](CO)C(=O)NCC(N)=O)NC(=O)[C@H](CC(N)=O)NC(=O)[C@H](CCC(N)=O)NC1=O [Example 28] (GYIQNE[Sar]SG-NH2; lactam N-6)
12 | 0.032 | 130 | > 10 | 10.7 | 39 |  |  | CC[C@H](C)[C@@H]1NC(=O)[C@H](Cc2ccc(O)cc2)NC(=O)CNC(=O)CC[C@@H](C(=O)N(C)CC(=O)N[C@@H](CCC(=O)O)C(=O)NCC(N)=O)NC(=O)[C@H](CC(N)=O)NC(=O)[C@H](CCC(N)=O)NC1=O [Example 29] (GYIQNE[Sar]EG-NH2; lactam N-6)
13 | 0.0036 |  | > 27 |  |  | 99 |  | CC[C@H](C)[C@@H]1NC(=O)[C@H](Cc2ccc(O)cc2)NC(=O)CNC(=O)CC[C@@H](C(=O)N2CC[C@H]2C(=O)N[C@@H](CC(C)C)C(=O)NCC(N)=O)NC(=O)[C@H](CC(N)=O)NC(=O)[C@H](CCC(N)=O)NC1=O [Example 50] (GYIQNE[Aze]LG-NH2; lactam N-6)
14 | 0.013 | 97 | > 27 |  |  |  |  | CC[C@H](C)[C@@H]1NC(=O)[C@H](Cc2ccc(O)cc2)NC(=O)CNC(=O)CC[C@@H](C(=O)N(C)CC(=O)N[C@@](C)(CC(C)C)C(=O)NCC(N)=O)NC(=O)[C@H](CC(N)=O)NC(=O)[C@H](CCC(N)=O)NC1=O [Example 51] (GYIQNE[Sar][αMeL]G-NH2; lactam N-6)
